Measurements from patent US11007184B2, “Cancer treatments using combinations of type 2 MEK and ERK inhibitors” (BIOMED VALLEY DISCOVERIES, INC., priority 2013, dated 2021).

Key:
A375 cells [1] = assay: Focused combination study, Alamar Blue viability assay; type: cell-based, human; conditions: with the lower concentrations of Sorafenib
Description: (§1) Combinations were tested using a 10×8 dose matrix with a final DMSO concentration of 0.2%. A 96 hour assay incubation period followed, with subsequent addition of Alamar Blue 10% (v/v) and 4 hours incubation prior to reading on a fluorescent plate reader. After reading Alamar Blue, the medium/Alamar Blue mix was flicked off and 100 μl of CellTiter-Glo/PBS (1:1) added and the plates processed as per the manufacturer's instructions (Promega). Media only background values were subtracted before the data was analysed. The Bliss additivity model was then applied. In brief, predicted fractional inhibition values for combined inhibition were calculated using the equation […]) where A and B are the fractional inhibitions obtained by drug A alone or drug B alone at specific concentrations. Cbliss is the fractional inhibition that would be expected if the combination of the two drugs were exactly additive. Cbliss values are subtracted from the experimentally observed fractional inhibition values to give an 'excess over Bliss' value. […] Excess over Bliss values are plotted as heat maps±SD. For focused combination studies, the Alamar Blue viability assays were performed as described above for combination studies. Additionally, Caspase-Glo 3/7 assays were performed. In brief, HCT116 cells were seeded in triplicate in white 96-well plates at a cell density of 5000 cells/well in McCoy's 5A plus 10% FBS. A375 cells were seeded at a density of 5000 cells/well in DMEM plus 10% FBS. […] The final concentration of DMSO was 0.2%, and 800 nM staurosporine was included as a positive control. 24 and 48 hour assay incubation periods were used. Then, Caspase-Glo® 3/7 50% (v/v) was added, plates were mixed for 5 minutes on an orbital shaker and incubated for 1 hour at room temperature prior to reading on a luminescent plate reader. Media only background values were subtracted before the data was analysed.

HCT116 cells = assay: as above; type: cell-based, human
Description: as §1

A375 cells [2] = assay: Dose escalation study; type: cell-based, human; conditions: Month 2; for Dose escalation progress: A375 cells; for Concentration in which escalated cells were growing: single agent escalation
Text: Medium was refreshed every 3-4 days. […] Again, medium was refreshed every 3-4 days. The process was repeated as required (FIG. 19).

HCT116 Parental = assay: Single agent proliferation assay (CellTiter-Glo, 72 h); type: cell-based; conditions: Homo sapiens, HCT-116
Description: (§2) Test compounds were incubated with the cells for 72 h at 37° C., 5% CO2 in a humidified atmosphere. CellTiter-Glo® reagent (Promega, Madison, Wis.) was added according to manufacturer's instructions and luminescence detected using the BMG FLUOstar plate reader (BMG Labtech, Ortenberg, Germany). The average media only background value was deducted and the data analysed using a 4-parameter logistic equation in GraphPad Prism (GraphPad Software, La Jolla, Calif.).

RKO BRAF KO (+/−/−) = assay: as above; type: cell-based
Description: as §2

[3] = tested on: MAPK signaling in A375 and HCT116 cells; assay: Western blot analysis of MAPK signaling; type: cell-based, human
Description: For Western blot studies, HCT116 cells (5×10^6) were seeded into 10 cm dishes in McCoy's 5A plus 10% FBS. […] Cells were allowed to adhere overnight prior to addition of the indicated amount of test compound (BVD-523) or vehicle control. Cells were treated for either 4 or 24 hours before isolation of whole-cell protein lysates, as specified below. Cells were harvested by trypsinisation, pelleted and snap frozen. Lysates were prepared with RIPA (Radio-Immunoprecipitation Assay) buffer, clarified by centrifugation and quantitated by bicinchoninic acid assay (BCA) assay. 20-50 μg of protein was resolved by SDS-PAGE electrophoresis, blotted onto PVDF membrane and probed using the antibodies detailed in Table 14 (for the 4-hour treatment) and Table 15 (for the 24-hour treatment) below.

RKO Parental = assay: Single agent proliferation assay (CellTiter-Glo, 72 h); type: cell-based
Description: as §2

HCT116 KRAS KO (+/−) = assay: as above; type: cell-based; conditions: Homo sapiens, HCT-116
Description: as §2

[4] = tested on: A375 cells escalated with dabrafenib + trametinib (Dab/Tram line)
Description: (§3) Cancer cell lines were maintained in cell culture under standard media and serum conditions. For dose escalation studies, A375 cells were split, grown to about 40-60% confluence, and then treated with the initial dose of the specified drug.
(§4) Cells were then allowed to grow until 70-90% confluence and split. Split ratios were kept as “normal” as possible and reasonably consistent between treatments (e.g. a minimum of 50% of the normal split ratio of the parentals). Medium was refreshed every 3-4 days. When cells again reached about 40-60% confluence, the dose was escalated. In the event that the 40-60% window was missed, the cells were split again and dosed once they reached 40-60% confluence. Again, medium was refreshed every 3-4 days.
(§5) Proliferation assays were used to track changes in sensitivity to the escalated agent(s) at appropriate time intervals (e.g. each month, although the timing is dependent on adequate cell numbers being available). […] Alamar Blue 10% (v/v) was then added and incubated for 4 hours and fluorescent product was detected using a BMG FLUOstar plate reader. The average media only background value was deducted and the data analyzed using a 4-parameter logistic equation in GraphPad Prism.

[5] = tested on: A375 cells escalated with BVD-523 (BVD-523 line); assay: Proliferation assay (Alamar Blue, 96 hours), dose escalation study; type: cell-based; conditions: Homo sapiens, A-375, Month 3, growing in 1.2 μM BVD-523, read-out: Relative IC50
Description: as §3, §4, §5

A375 cells [6] = assay: Combination study, 10×8 dose matrix, Alamar Blue and CellTiter-Glo, Bliss additivity model; type: cell-based, human; conditions: single agent
Description: Combinations were tested using a 10×8 dose matrix with a final DMSO concentration of 0.2%. A 96 hour assay incubation period followed, with subsequent addition of Alamar Blue 10% (v/v) and 4 hours incubation prior to reading on a fluorescent plate reader. After reading Alamar Blue, the medium/Alamar Blue mix was flicked off and 100 μl of CellTiter-Glo/PBS (1:1) added and the plates processed as per the manufacturer's instructions (Promega). Media only background values were subtracted before the data was analysed. The Bliss additivity model was then applied.
In brief, predicted fractional inhibition values for combined inhibition were calculated using the equation Cbliss=A+B−(A×B) where A and B are the fractional inhibitions obtained by drug A alone or drug B alone at specific concentrations. Cbliss is the fractional inhibition that would be expected if the combination of the two drugs were exactly additive. Cbliss values are subtracted from the experimentally observed fractional inhibition values to give an ‘excess over Bliss’ value. Excess over Bliss values greater than 0 indicate synergy, whereas values less than 0 indicate antagonism. Excess over Bliss values are plotted as heat maps±SD.
The single and combination data are also presented as dose-response curves generated in GraphPad Prism (plotted using % viability relative to DMSO only treated controls).

A375 Parental = assay: Single agent proliferation assay (CellTiter-Glo, 72 h); type: cell-based; conditions: Homo sapiens, A-375
Description: as §2

A375 NRAS (Q61K/+) = assay: as above; type: cell-based; conditions: Homo sapiens, A-375
Description: Cells were seeded in 96-well plates at the densities and media conditions indicated in Table 16 and allowed to adhere overnight prior to addition of compound or vehicle control. […] Test compounds were incubated with the cells for 72 h at 37° C., 5% CO2 in a humidified atmosphere. CellTiter-Glo® reagent (Promega, Madison, Wis.) was added according to manufacturer's instructions and luminescence detected using the BMG FLUOstar plate reader (BMG Labtech, Ortenberg, Germany). The average media only background value was deducted and the data analysed using a 4-parameter logistic equation in GraphPad Prism (GraphPad Software, La Jolla, Calif.).

| SMILES | Combination interaction with Sorafenib (A375 cells [1]) | Combination interaction with AZ628 (HCT116 cells) | Combination interaction with Sorafenib (HCT116 cells; Trametinib: with higher concentrations of Sorafenib) | Dose escalation progress (A375 cells [2]) | IC50 (HCT116 Parental) | IC50 (RKO BRAF KO (+/−/−)) | Concentrations required to induce changes in substrate phosphorylation and effector targets of ERK kinases ([3]; RAF and RAS mutant cancer cells in-vitro, acute and prolonged treatment) | RSK1/2 phosphorylation at residues strictly dependent on ERK (T359/5363) ([3]; following BVD-523 treatment) | Cellular ERK enzyme activity ([3]; following either acute or prolonged treatment) | IC50 (RKO Parental) | IC50 (HCT116 KRAS KO (+/−)) | Concentration in which escalated cells were growing (A375 cells [2]) | IC50 [4] | IC50 [5] | Sensitivity of A375 cells, which carry a BRAF (V600E) mutation (A375 cells [6]) | IC50 (A375 Parental) | IC50 (A375 NRAS (Q61K/+)) |
| --- | --- | --- | --- | --- | --- | --- | --- | --- | --- | --- | --- | --- | --- | --- | --- | --- | --- |
| CC(C)Nc1cc(-c2c[nH]c(C(=O)N[C@H](CO)c3cccc(Cl)c3)c2)c(Cl)cn1 [BVD-523] | window of synergy | windows of synergy | windows of synergy | progressed more slowly | 256 nM | 762 nM | low micromolar range | reduced phosphorylation | fully inhibited | 621 nM | 316 nM | – | – | – | – | – | – |
| CC(C)(C)c1nc(-c2cccc(NS(=O)(=O)c3c(F)cccc3F)c2F)c(-c2ccnc(N)n2)s1 [Dabrafenib, dabrafenib] | – | – | – | quickest | – | – | – | – | – | – | – | 100 × parental cell IC50 | 58 nM | 18.4 nM | sensitive | – | – |
| O=C(NOCCO)c1ccc2cncn2c1Nc1ccc(I)cc1F [GDC-0623] | – | – | – | – | 31 nM | 5 nM | – | – | – | 32 nM | 29 nM | – | – | – | – | 8 nM | 10 nM |
| O=C(c1ccc(F)c(F)c1Nc1ccc(I)cc1F)N1CC(O)([C@@H]2CCCCN2)C1 [GDC-0973] | – | – | – | – | 90 nM | 31 nM | – | – | – | 40 nM | 61 nM | – | – | – | – | 2 nM | 3 nM |
| Cn1cnc2c(F)c(Nc3ccc(Br)cc3F)c(C(=O)NOCCO)cc21 [MEK-162] | – | – | – | – | 114 nM | 23 nM | – | – | – | 210 nM | 113 nM | – | – | – | – | 23 nM | 33 nM |
| CC(=O)O[C@H]1C(=O)[C@@]2(C)[C@H]([C@H](OC(=O)c3ccccc3)[C@]3(O)C[C@H](OC(=O)[C@H](O)[C@@H](NC(=O)c4ccccc4)c4ccccc4)C(C)=C1C3(C)C)[C@]1(OC(C)=O)CO[C@@H]1C[C@@H]2O [Paclitaxel] | – | – | – | – | – | – | – | – | – | – | – | – | – | – | – | – | 6 nM |
| O=C(Nc1ccc2[nH]nc(-c3ccncc3)c2c1)[C@@H]1CCN(CC(=O)N2CCN(c3ccc(-c4ncccn4)cc3)CC2)C1 [SCH772984] | – | – | – | – | 116 nM | 125 nM | – | – | – | 126 nM | 141 nM | – | – | – | – | 43 nM | 79 nM |
| CC(=O)Nc1cccc(-n2c(=O)n(C3CC3)c(=O)c3c(Nc4ccc(I)cc4F)n(C)c(=O)c(C)c32)c1 [Trametinib, trametinib] | – | – | – | – | 7 nM | 3 nM | – | – | – | 8 nM | 6 nM | 100 × parental cell IC50 | – | 1.7 nM | – | 0.3 nM | – |
